Measurements published in patent publication EP2385818B1, “DIOLS AS ANTIPERSPIRANT AGENTS” (Beiersdorf Aktiengesellschaft, priority 2009, dated 2010).

Test system: schweißabgebenden Schweißdrüsen im Testareal
Test: Sweat reduction on the forearm of volunteers, sweating induced at 75 °C, silicone imprint count of active sweat glands versus untreated area (following Keskin et al.)
Assay type: in vivo, Probanden
Conditions: for antitranspirant bzw. schweißhemmende Wirkung (Restschweißmenge im Vergleich zum unbehandelten Areal): forearm, after product application, result in words only; for AT-Wirkung, onset: measurable after the first application, no build-up by repeated application
Text: Die überraschende Antitranspirantwirksamkeit wurde in Studien zum AT-Wirkmechanismus der aromatischen Diole in wässrigen Systemen, unterschiedlichen Ölen und O/W-Emulsion untersucht (siehe Abbildung 1). In den Abbildungen ist die Restschweißmenge im Vergleich zum unbehandelten Areal nach Produktapplikation dargestellt. 100% Restschweißmenge entsprechen 0% Schweißreduktion. Die Schweißreduktion wurde in Anlehnung an M. Keskin et al. J. Invest. Dermatol. 1998; 110:591 gemessen. Bei den Messungen werden die Testsubstanzen auf dem Unterarm der Probanden angewendet. Die Probanden werden bei 75 °C zum Schwitzen angeregt; nach Beginn der Schweißproduktion wird mittels Silikonabdrucktechnik die Anzahl der schweißabgebenden Schweißdrüsen im Testareal ermittelt und gegen ein unbehandeltes Vergleichsareal abgeglichen.

Structure (SMILES)	antitranspirant bzw. schweißhemmende Wirkung (Restschweißmenge im Vergleich zum unbehandelten Areal)	AT-Wirkung, onset	AT-Leistung (preparation with up to 50 % Gew. in water, compared with preparation with 10 Gew.% Aluminiumchlorohydrat (Abbildung 1))
CC(O)C(O)c1ccccc1 (centres unmarked)	schweißhemmende Wirkung	–	–
CC(O)CCO (centres unmarked) [1,3-Butylenglykol]	antitranspirant bzw. schweißhemmende Wirkung	unmittelbare AT-Wirkung (Sofort-Effekt)	–
OCCCO [1,3-Propylenglykol]	antitranspirant bzw. schweißhemmende Wirkung	unmittelbare AT-Wirkung (Sofort-Effekt)	gute AT-Leistung
CC(O)CC(C)O (centres unmarked) [2,4-Pentylenglykol]	antitranspirant bzw. schweißhemmende Wirkung	unmittelbare AT-Wirkung (Sofort-Effekt)	–
CC(O)CCC(C)O (centres unmarked) [2,5 Hexandiol, 2,5-Hexandiol]	antitranspirant bzw. schweißhemmende Wirkung	unmittelbare AT-Wirkung (Sofort-Effekt)	–
OCCC(O)c1ccccc1 (centres unmarked) [Phenyl-1,3-Propylenglykol]	schweißhemmende Wirkung	–	–
